# Patent US9567319B2, “Compound having higher inhibitory activity on protein kinase G and preparation method thereof” (Jenkem Technology Co., Ltd., (Tianjin), priority 2014, dated 2017)
# Values joined by “and” are separate entries in the source; they are usually repeats but may differ in a detail not shown here. Identical values can stand only once. “Also recorded” adds a separate entry of the source.
# Legend:
# [1] = Test of water solubility of the compounds; conditions: for Volume of added water: about 0.1 g sample, room temperature, water added until dissolved; for solubility: water, thermodynamic from solid
# Protocol: At room temperature, about 0.1 g of each sample to be tested (solid materials should be ground as powder) was added to a 10 mL cylinder with a ground glass stopper. Water was gradually added. After each addition of 0.5 mL water, the resulting solution was stirred for 10 min for mixing, and was then visually examined for the presence of any undissolved sample. If there still exists undissolved sample or undissolved portions of the sample after 10 mL water was added, the test would be continued in a 100 mL cylinder.
# [2] = tested on: hyperalgesia induced by Freund's complete adjuvant (CFA) in rats; assay: Therapeutic effect on CFA induced hyperalgesia in rats (overall conclusion of Von Frey and weight bearing tests); format: in vivo, SD rats; conditions: for anti-hyperalgesia effect at high dose: high dose i.v.: JK-02H 20 mg/kg, 46 and JK-02A 40 mg/kg; for anti-hyperalgesia effect at high dose / anti-hyperalgesia effect at low dose: compared with vehicle; for anti-hyperalgesia effect at low dose: low dose i.v.: JK-02H 5 mg/kg, 46 and JK-02A 10 mg/kg
# Protocol: . A repeat efficacy study was carried out on the same batch of animals with a single-dose treatment followed by a washing-out period. The 14 days in life studies included two stages: a single low dose treatment assessment on the 7th day and then a single high dose treatment test on the 14th day after CFA injection.
# On the 7th day after CFA injection, the rats were randomly assigned to respective groups using a computer generated randomization procedure based on the body weight and the baseline values of Von Frey and weight bearing test. Animals received corresponding single dose treatments (vehicle and 3 test articles) on the 7th and 14th days after CFA injection, respectively, and the effect of the test compounds were evaluated. Hyperalgesia of all the study animals was assessed following a single low dose treatment with the test articles on day 7, while a single high dose effect of the test article was evaluated on day 14.
# The mechanical hyperalgesia and weight bearing were measured on day 7 and day 14 after CFA injection, followed by administration of control or test articles. Von Frey filaments and weight bearing were measured on all the study animals at three time points on day 7, and four time points on day 14. An extra time point assessment was conducted on day 14, considering the strong analgesic effect of the test articles at a higher dose noticed during the test at the 3th time point.
# The effects of compounds 46, JK-02A and JK-02H on CFA induced hyperalgesia in rats were assessed with Von Frey and weight bearing tests following single injection.
# [3] = tested on: hyperalgesia induced by Freund's complete adjuvant (CFA) in rats; assay: Von Frey filament test, CFA induced hyperalgesia in rats; format: in vivo, SD rats; conditions: for Von Frey Filament Test Values (Mean ± SD), Baseline: pretreatment, n=8; for Von Frey Filament Test Values (Mean ± SD), 15 min: 15 min post treatment; for Von Frey Filament Test Values (Mean ± SD), 2 h: 2 h post treatment; for Von Frey Filament Test Values (Mean ± SD), 5 h: 5 h post treatment; for Von Frey Values of Individual Animal, Day 14, 15 min / Von Frey Values of Individual Animal, Day 14, 2 h / Von Frey Values of Individual Animal, Day 14, 5 h: high dose i.v. (46 and JK-02A 40 mg/kg, JK-02H 20 mg/kg); for Von Frey Values of Individual Animal, Day 14, 15 min / Von Frey Values of Individual Animal, Day 14, 2 h / Von Frey Values of Individual Animal, Day 14, 5 h / Von Frey Values of Individual Animal, Day 7, 15 min / Von Frey Values of Individual Animal, Day 7, 2 h: two repeated stimuli; for Von Frey Values of Individual Animal, Day 7, 15 min / Von Frey Values of Individual Animal, Day 7, 2 h: low dose i.v. (46 and JK-02A 10 mg/kg, JK-02H 5 mg/kg); for First Baseline, Von Frey, individual animal: pretreatment day 7, two repeated stimuli per animal; for Second Baseline, Von Frey, individual animal: pretreatment day 14 after washing-out, two repeated stimuli per animal
# Protocol: Compounds 46 and JK-02A were prepared according to the disclosure of US patent application No. US2008/0176920, and compound JK-02H was prepared according to Example 1. A repeat efficacy study was carried out on the same batch of animals with a single-dose treatment followed by a washing-out period. The 14 days in life studies included two stages: a single low dose treatment assessment on the 7th day and then a single high dose treatment test on the 14th day after CFA injection. On the 7th day after CFA injection, the rats were randomly assigned to respective groups using a computer generated randomization procedure based on the body weight and the baseline values of Von Frey and weight bearing test. Animals received corresponding single dose treatments (vehicle and 3 test articles) on the 7th and 14th days after CFA injection, respectively, and the effect of the test compounds were evaluated. Hyperalgesia of all the study animals was assessed following a single low dose treatment with the test articles on day 7, while a single high dose effect of the test article was evaluated on day 14. The mechanical hyperalgesia and weight bearing were measured on day 7 and day 14 after CFA injection, followed by administration of control or test articles. Von Frey filaments and weight bearing were measured on all the study animals at three time points on day 7, and four time points on day 14. An extra time point assessment was conducted on day 14, considering the strong analgesic effect of the test articles at a higher dose noticed during the test at the 3th time point. Mechanical hyperalgesia of the left hind paw was measured before and during the course of study in all animal groups by determining withdrawal thresholds to Von Frey filament (Bioseb, France). Increasing tensile force perpendicular to the plantar surface of the paw was applied to the filaments. The threshold for paw withdrawal was calculated by taking the average of 2-3 repeated stimuli (unit in “g”). On day 7, Von Frey Filament measurements were conducted three times, at the time points of pretreatment, 15 min and 2 hours post treatment. Following a one-week washing out period, on day 14 after CFA injection, Von Frey Filament tests were performed again four times post a single high dose administration. Rats treated with vehicle or high dose test articles were measured at the time points of pretreatment, 15 min, 2 and 5 hours post treatment. All the results were expressed as mean±SD. One-way analysis of variance (ANOVA) followed by a multiple comparison test were applied among the groups, p<0.05 accepted as significant.
# [4] = day 7 after CFA, low dose groups (46 and JK-02A 10 mg/kg, JK-02H 5 mg/kg)
# [5] = day 7 after CFA, single low dose i.v. (46 and JK-02A 10 mg/kg, JK-02H 5 mg/kg)
# [6] = day 14 after CFA, high dose groups (46 and JK-02A 40 mg/kg, JK-02H 20 mg/kg)
# [7] = day 14 after CFA, single high dose i.v. (46 and JK-02A 40 mg/kg, JK-02H 20 mg/kg)
Volume of added water [1] [mL],solubility [1] [µg/mL],Compound,anti-hyperalgesia effect at high dose [2],anti-hyperalgesia effect at low dose [2],"Von Frey Filament Test Values (Mean ± SD), Baseline [3, 4] [g]","Von Frey Filament Test Values (Mean ± SD), 15 min [3, 5] [g]","Von Frey Filament Test Values (Mean ± SD), 2 h [3, 5] [g]","Von Frey Filament Test Values (Mean ± SD), Baseline [3, 6] [g]","Von Frey Filament Test Values (Mean ± SD), 15 min [3, 7] [g]","Von Frey Filament Test Values (Mean ± SD), 2 h [3, 7] [g]","Von Frey Filament Test Values (Mean ± SD), 5 h [3, 7] [g]","Von Frey Values of Individual Animal, Day 14, 15 min [3]","Von Frey Values of Individual Animal, Day 14, 2 h [3]","Von Frey Values of Individual Animal, Day 14, 5 h [3]","Von Frey Values of Individual Animal, Day 7, 15 min [3]","Von Frey Values of Individual Animal, Day 7, 2 h [3]","First Baseline, Von Frey, individual animal [3]","Second Baseline, Von Frey, individual animal [3]",also measured
71.5,1400,CCCOc1ccc(F)c(F)c1C(=O)c1ccc(C(=O)N[C@@H]2CNC[C@H]2NC(=O)c2ccc3cn[nH]c3c2)cc1 [JK-02A],showed anti-hyperalgesia effects,not significant,6.89 ± 0.99,7.64 ± 1.83,7.43 ± 1.62,6.73 ± 0.74,8.63 ± 1.62,8.82 ± 1.20,8.45 ± 2.18,9.3 g and 8.9 g and 6.5 g and 7.4 g (2×) and 10.9 g and 9.5 g (2×) and 6.1 g and 12.5 g and 10.6 g and 7.6 g and 9.2 g and 8.5 g and 10.7 g and 9.1 g,8.7 g (2×) and 9.8 g and 9.5 g and 9.3 g (2×) and 9.4 g and 9.1 g and 8.5 g and 9.2 g and 8.2 g and 8.9 g and 9.6 g and 10.6 g and 6.2 g and 5.8 g,11.9 g and 13.2 g and 6.7 g and 5.2 g and 8.3 g and 9.2 g and 9.7 g and 9.8 g and 8.8 g and 9.9 g and 6.4 g and 5.7 g and 7.3 g and 8.9 g and 7.4 g and 6.8 g,9.1 g (3×) and 8.8 g and 6.3 g and 5.6 g (2×) and 10.2 g and 8.9 g and 10.0 g and 9.5 g (2×) and 5.7 g and 7.3 g and 6.0 g and 9.4 g,6.6 g and 5.6 g and 7.0 g (3×) and 8.3 g and 7.4 g and 6.0 g and 8.9 g and 10.5 g and 10.4 g and 6.5 g and 7.1 g and 7.3 g and 5.1 g and 4.9 g,5.1 g and 5.9 g and 5.8 g and 6.5 g and 6.9 g and 6.2 g and 5.2 g and 6.8 g (2×) and 7.8 g and 7.3 g and 7.6 g (2×) and 7.9 g and 8.2 g and 8.6 g,7.1 g (2×) and 5.3 g and 5.2 g and 7.4 g and 7.3 g and 6.0 g and 7.6 g and 6.4 g (2×) and 6.6 g and 7.7 g and 7.5 g (2×) and 5.8 g and 6.7 g,–
66.5,1500,CCCOc1ccc(O)c(F)c1C(=O)c1ccc(C(=O)N[C@@H]2CNC[C@H]2NC(=O)c2ccc3cn[nH]c3c2)cc1 [compound 46],anti-hyperalgesia effect; also recorded: showed anti-hyperalgesia effects,barely showed any anti-hyperalgesia effect; also recorded: not significant,6.81 ± 0.74,7.12 ± 1.20,7.69 ± 1.59,7.01 ± 0.75,8.17 ± 1.50,8.04 ± 1.83,7.66 ± 1.72,7.3 g and 9.0 g and 8.3 g and 7.5 g and 9.6 g (2×) and 10.8 g and 7.0 g and 6.7 g and 8.2 g (2×) and 5.5 g and 5.6 g and 8.0 g and 10.5 g and 8.9 g,5.8 g and 7.3 g and 8.2 g and 7.0 g and 6.2 g and 7.1 g and 8.9 g (2×) and 7.2 g and 5.9 g (2×) and 8.5 g and 9.7 g and 8.8 g and 11.1 g and 12.1 g,6.6 g (2×) and 7.5 g (2×) and 7.1 g and 6.1 g and 5.9 g and 6.3 g and 8.8 g and 6.8 g and 5.8 g and 7.0 g and 8.7 g and 9.9 g and 11.7 g and 10.3 g,7.6 g (2×) and 7.5 g (2×) and 6.8 g and 6.6 g and 5.5 g and 8.2 g and 5.9 g and 7.9 g and 4.6 g and 5.3 g and 9.0 g and 8.9 g and 7.8 g and 7.2 g,9.3 g (2×) and 8.8 g and 9.4 g (2×) and 8.6 g and 6.5 g (3×) and 5.8 g and 5.9 g (2×) and 7.4 g and 5.5 g and 8.4 g and 9.8 g,7.4 g and 5.4 g and 6.2 g and 6.1 g (2×) and 6.4 g and 6.3 g and 5.5 g and 7.5 g and 7.0 g and 7.3 g and 6.7 g and 7.6 g (2×) and 8.1 g and 7.7 g,7.6 g (2×) and 7.7 g and 6.4 g and 6.2 g (2×) and 5.5 g and 5.7 g and 7.1 g and 7.9 g and 7.0 g and 7.3 g and 7.2 g (2×) and 8.1 g and 7.5 g,–
13.5,7400,"Cl.O=C(N[C@@H]1CNC[C@H]1NC(=O)c1ccc2cn[nH]c2c1)c1ccc(C(=O)c2c(OCCOCCO)ccc(F)c2F)cc1 [JK-02H, (3R,4R)-3-{4-[2,3-difluoro-6-(5-hydroxy-3-oxapentan-1-oxy)]benzoyl}benzamido-4-(1H-indazole-6-carboxamido)pyrrolidine hydrochloride]",–,–,6.76 ± 0.73,9.85 ± 2.15,8.69 ± 1.57,6.81 ± 0.70,10.87 ± 1.00,10.57 ± 1.76,9.68 ± 1.63,–,–,–,–,–,–,–,"water solubility, times higher than that of compound 46 ([1]; relative to compound 46 (parent compound)): about 5 times; therapeutic effect when the test time was prolonged to 5 h ([2]; high dose (20 mg/kg), 5 h post treatment): very remarkable therapeutic effect; anti-hyperalgesia effect at high dose ([2]; hydrochloride): excellent anti-hyperalgesia effect; also recorded: significant anti-hyperalgesia effects; anti-hyperalgesia effect at low dose ([2]; hydrochloride): excellent anti-hyperalgesia effect; also recorded: significant anti-hyperalgesia effects; Von Frey Values of Individual Animal, Day 14, 15 min ([3]; hydrochloride): 11.6 g and 11.4 g (2×) and 9.4 g (2×) and 10.9 g and 9.7 g and 10.3 g and 10.1 g and 11.1 g and 10.8 g and 10.4 g and 12.0 g and 13.7 g and 11.7 g and 10.0 g; Von Frey Values of Individual Animal, Day 14, 2 h ([3]; hydrochloride): 7.1 g and 8.9 g and 11.3 g and 10.8 g (2×) and 9.2 g and 7.2 g and 12.0 g and 9.8 g and 10.5 g and 10.3 g and 11.4 g and 11.0 g and 12.3 g and 13.0 g and 13.5 g; Von Frey Values of Individual Animal, Day 14, 5 h ([3]; hydrochloride): 7.3 g and 8.9 g and 8.7 g (2×) and 9.5 g and 7.1 g and 7.4 g and 8.5 g and 11.0 g and 9.8 g and 11.3 g and 9.9 g and 11.2 g and 12.6 g and 12.1 g and 10.9 g; Von Frey Values of Individual Animal, Day 7, 15 min ([3]; hydrochloride): 6.5 g and 5.5 g and 11.9 g and 13.8 g and 8.6 g and 8.5 g (2×) and 10.5 g (2×) and 11.3 g (2×) and 8.7 g and 9.3 g and 9.7 g and 11.4 g and 11.7 g; Von Frey Values of Individual Animal, Day 7, 2 h ([3]; hydrochloride): 7.0 g and 6.2 g and 11.4 g and 11.2 g and 8.7 g (2×) and 9.0 g and 7.5 g (3×) and 6.5 g and 8.5 g and 10.8 g (2×) and 8.4 g and 9.4 g; First Baseline, Von Frey, individual animal ([3]; hydrochloride): 4.9 g and 5.8 g (3×) and 6.7 g and 7.7 g and 6.1 g and 7.0 g and 7.1 g and 6.4 g and 7.4 g (2×) and 7.3 g (2×) and 8.0 g and 7.5 g; Second Baseline, Von Frey, individual animal ([3]; hydrochloride): 5.2 g and 5.4 g and 8.4 g and 6.7 g and 6.6 g (2×) and 6.4 g and 7.3 g (2×) and 7.1 g and 6.8 g and 7.6 g and 7.4 g and 6.9 g and 6.2 g and 7.0 g"
